According to the CheMixHub viscosity set:
Where “and” joins values, the source holds several entries; their conditions need not be identical. Equal values may be shown once.

Assay: xn = mol fraction of the nth substance listed

COc1ccccc1N + NCCO
viscosity [mPa·s], 100 kPa
Conditions | x1 = 0.0897 | x1 = 0.1649 | x1 = 0.2579 | x1 = 0.3519 | x1 = 0.4497 | x1 = 0.5507 | x1 = 0.6549 | x1 = 0.7626 | x1 = 0.8735
303.15 K | 13.58 | 12.87 | 11.99 | 11.1 | 10.18 | 9.22 | 8.23 | 7.2 | 6.14
308.15 K | 11.07 | 10.54 | 9.87 | 9.2 | 8.5 | 7.77 | 7.02 | 6.24 | 5.44
313.15 K | 9.09 | 8.7 | 8.2 | 7.7 | 7.17 | 6.63 | 6.07 | 5.49 | 4.88
318.15 K | 7.24 | 6.97 | 6.64 | 6.29 | 5.94 | 5.56 | 5.18 | 4.78 | 4.37

COCCOC + Nc1ccccc1
298.15 K, 101 kPa
Conditions | viscosity [mPa·s]
x1 = 0.103 | 2.958
x1 = 0.2053 | 2.326
x1 = 0.3069 | 1.85
x1 = 0.4079 | 1.488
x1 = 0.5082 | 1.194
x1 = 0.6079 | 0.96
x1 = 0.7068 | 0.778
x1 = 0.8052 | 0.625
x1 = 0.9029 | 0.505

CC(N)C(=O)[O-].CCCCn1cc[n+](C)c1 + O
Conditions | viscosity [mPa·s]
318.15 K, 100.3 kPa, x1 = 0.01781 | 1.114

CCCCC(CC)COC(=O)CC(C(=O)OCC(CC)CCCC)S(=O)(=O)[O-].C[NH+]1C=CN=C1 (stereo not given) + O
99.6 kPa, x2 = 0.09474
Conditions | viscosity [mPa·s]
293.15 K | 3381
303.15 K | 1440
313.15 K | 684
323.15 K | 359

CN(C)N + O
293.15 K, 101.3 kPa
Conditions | viscosity [mPa·s]
x1 = 0.0499 | 2.05
x1 = 0.1018 | 3.64
x1 = 0.1471 | 6.22
x1 = 0.2 | 8.22
x1 = 0.2498 | 8.46
x1 = 0.2984 | 7.51
x1 = 0.3466 | 6.25
x1 = 0.3995 | 4.78
x1 = 0.4482 | 4.23
x1 = 0.4994 | 2.95
x1 = 0.5955 | 2.28
x1 = 0.6986 | 1.27
x1 = 0.8064 | 0.9
x1 = 0.8999 | 0.69

CNC(=O)NC + O
101 kPa
Conditions | viscosity [mPa·s]
293.15 K, x1 = 0.000596 | 1.045
293.15 K, x1 = 0.06729 | 2.325
293.15 K, x1 = 0.08722 | 2.805
298.15 K, x1 = 0.1358 | 3.535
298.15 K, x1 = 0.2199 | 5.955
303.15 K, x1 = 0.08722 | 2.055
308.15 K, x1 = 0.11 | 2.135
308.15 K, x1 = 0.1358 | 2.545
313.15 K, x1 = 0.1358 | 2.195

COC(C)=O + O
298.15 K, 101 kPa
Conditions | viscosity [mPa·s]
x1 = 0.007776 | 0.9505
x1 = 0.01059 | 0.9711
x1 = 0.01834 | 1.021
x1 = 0.02351 | 1.05
x1 = 0.0294 | 1.087
x1 = 0.03745 | 1.118
x1 = 0.03898 | 1.127
x1 = 0.04509 | 1.146
x1 = 0.7729 | 0.4311
x1 = 0.8213 | 0.4084
x1 = 0.8787 | 0.3879
x1 = 0.9325 | 0.372

C[C@H](N)C(=O)[O-].[Na+] + O
viscosity [mPa·s], 101 kPa
Conditions | x1 = 0.004484 | x1 = 0.008927 | x1 = 0.01333 | x1 = 0.0177 | x1 = 0.02202 | x1 = 0.02631 | x1 = 0.03478 | x1 = 0.0431 | x1 = 0.05127
293.15 K | 1.118 | 1.239 | 1.371 | 1.526 | 1.683 | 1.856 | 2.272 | 2.747 | 3.244
303.15 K | 0.886 | 0.979 | 1.077 | 1.192 | 1.305 | 1.436 | 1.726 | 2.062 | 2.399
313.15 K | 0.722 | – | 0.871 | 0.96 | 1.046 | 1.144 | 1.372 | 1.605 | 1.851
323.15 K | 0.602 | 0.662 | 0.722 | 0.791 | 0.859 | 0.935 | 1.1 | 1.286 | 1.477

N[C@@H](Cc1ccccc1)C(=O)O + O
viscosity
Conditions | 298.15 K | 303.15 K | 308.15 K | 313.15 K
100 kPa, x1 = 0.0004 | 0.8956 mPa·s | 0.8037 mPa·s | 0.7264 mPa·s | –
100 kPa, x1 = 0.0007 | 0.8984 mPa·s | 0.8062 mPa·s | 0.7289 mPa·s | 0.6638 mPa·s
100 kPa, x1 = 0.001 | 0.901 mPa·s | 0.8088 mPa·s and 0.8113 mPa·s | 0.7315 mPa·s and 0.7343 mPa·s | 0.6689 mPa·s and 0.6664 mPa·s
100 kPa, x1 = 0.0018 | 0.9067 mPa·s | 0.8139 mPa·s | – | 0.6713 mPa·s
100 kPa, x1 = 0.0022 | 0.9093 mPa·s | 0.8169 mPa·s | 0.7395 mPa·s | 0.6738 mPa·s
101 kPa, x1 = 0.00018 | 0.912 mPa·s | 0.803 mPa·s | 0.731 mPa·s | 0.658 mPa·s
101 kPa, x1 = 0.000362 | 0.919 mPa·s | 0.809 mPa·s | 0.734 mPa·s | –
101 kPa, x1 = 0.000725 | 0.927 mPa·s | 0.822 mPa·s | 0.745 mPa·s | 0.671 mPa·s
101 kPa, x1 = 0.000909 | 0.931 mPa·s | 0.825 mPa·s | 0.749 mPa·s | 0.674 mPa·s
101 kPa, x1 = 0.00109 | 0.949 mPa·s | 0.841 mPa·s | – | 0.688 mPa·s
101 kPa, x1 = 0.00146 | 0.959 mPa·s | 0.849 mPa·s | 0.767 mPa·s | 0.692 mPa·s
